From BindingDB's records for patent US9192603 (Vanderbilt University, 2015)

Molecular target: Metabotropic glutamate receptor 4 (Homo sapiens, UniProt Q14833)
Test: Receptor Activity Assay
Protocol: The disclosed compounds and compositions can be evaluated for their ability to act as a potentiator of metabotropic glutamate receptor activity, in particular mGluR4 activity, by any suitable known methodology known in the art. For example, Chinese Hamster Ovary (CHO) cells transfected with human mGluR4 or HEK cells co-transfected with rat mGluR4 and the G-protein regulated Inwardly Rectifying Potassium channel (GIRK) were plated in clear bottom assay plates for assay in a Hamamatsu FDSS Fluorometric Plate Reader. The cells were loaded with either a Ca2+-sensitive fluorescent dye or the thallium responsive dye and the plates were washed and placed into a suitable kinetic plate reader. For human mGluR4 assays, a fluorescence baseline was established for 3-5 seconds, the disclosed compounds were then added to the cells, and the response in cells was measured.

Metabotropic glutamate receptor 4, sequence (Q14833 whole entry): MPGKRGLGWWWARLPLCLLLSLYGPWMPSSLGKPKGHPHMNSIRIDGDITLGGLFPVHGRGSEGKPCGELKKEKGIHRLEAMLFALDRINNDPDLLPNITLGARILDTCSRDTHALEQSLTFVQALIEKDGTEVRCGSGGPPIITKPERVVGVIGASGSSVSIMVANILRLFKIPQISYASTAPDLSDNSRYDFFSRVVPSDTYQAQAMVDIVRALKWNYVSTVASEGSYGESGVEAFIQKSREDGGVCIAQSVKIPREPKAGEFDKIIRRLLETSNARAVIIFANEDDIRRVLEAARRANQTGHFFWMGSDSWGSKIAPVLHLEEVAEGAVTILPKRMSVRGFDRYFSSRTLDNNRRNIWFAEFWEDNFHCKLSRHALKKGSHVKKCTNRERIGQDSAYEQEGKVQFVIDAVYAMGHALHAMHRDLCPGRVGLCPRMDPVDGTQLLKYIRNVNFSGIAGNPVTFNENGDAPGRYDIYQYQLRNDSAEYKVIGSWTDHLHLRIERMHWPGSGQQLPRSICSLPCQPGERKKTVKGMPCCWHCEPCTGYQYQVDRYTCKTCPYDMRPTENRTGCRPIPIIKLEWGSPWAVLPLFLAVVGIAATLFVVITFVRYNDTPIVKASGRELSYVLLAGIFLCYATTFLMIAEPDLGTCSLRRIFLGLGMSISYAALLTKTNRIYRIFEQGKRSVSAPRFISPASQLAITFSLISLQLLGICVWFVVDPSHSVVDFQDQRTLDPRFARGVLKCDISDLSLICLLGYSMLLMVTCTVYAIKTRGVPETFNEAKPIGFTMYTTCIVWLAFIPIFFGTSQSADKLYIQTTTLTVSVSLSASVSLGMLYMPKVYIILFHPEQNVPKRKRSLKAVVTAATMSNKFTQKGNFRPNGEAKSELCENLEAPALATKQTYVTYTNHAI

EC50: > 10 µM
Structure (SMILES): CC(C)c1nc(NC(=O)c2ccccn2)sc1S(=O)(=O)Cc1ccc(F)cc1F [US9192603, 65]
